Data as given in patent publication US7026505B2, “Method of treating tinnitus” (Warner-Lambert Company, priority 2002, dated 2006).
Counter-ions that a name gives are not always drawn.

| melting point [°C] | SMILES |
| --- | --- |
| 196 to 199 | CS(=O)(=O)NCCC1(CN)CCCCC1.Cl |
| 183 to 185 | CC(C)CC(CN)Cc1noc(=S)[nH]1.Cl (stereo not shown) |
| 210 to 212 | Cl.NCC1(Cc2noc(=S)[nH]2)CCCCC1 |
| 160 to 170 | CCCC(C(C)C)C(CN)CC(=O)O (stereo not shown) (as salt: HCl) |
